We go through 1 compound from patent publication US20060084695A1, “Compositions and treatments for inhibiting kinase and/or HMG-CoA reductase” (priority 2004, published 2006).

The assay concerns oxazolone-induced mouse ear swelling. As to the kind of experiment: Inhibition of oxazolone-induced mouse ear swelling (topical inflammation model). It counts as in vivo, BALB/c male mice. Particulars: observations made from Table II. As for the experimental part:
Left ears were untreated. The thickness of both ears of each animal was measured with a Dyer model micrometer gauge 24 hours after oxazolone challenge, and the net increase in thickness of right ears versus left ears was calculated for each animal. Percent inhibition was calculated according to the formula: [(Iv−It)/Iv]×100, where Iv and It respectively refer to the average net increase in right ear thickness (mm) for vehicle and candidate compound treated mice.

For `CC(C)c1c(C(=O)Nc2ccccc2)c(-c2ccccc2)c(-c2ccc(F)cc2)n1CC[C@@H]1C[C@@H](O)CC(=O)O1` [Atorvastatin lactone, atorvastatin lactone], the “anti-inflammatory activity in ear swelling assay, comparison in words” value is “most potent anti-inflammatory activity”.
